# Laboratory results published in patent publication US9701676B2, “Pro-neurogenic compounds” (Board of Regents of The University of Texas System, priority 2012, dated 2017).
# Tested on: proliferating neural precursor cells in the hippocampus (subgranular layer of the dentate gyrus)
# Experiment: standard in vivo hippocampal neurogenesis assay (BrdU labelling, week-long intracranial mini-pump infusion)
# Parameters: species or system mouse (C57/B6)
# Details: 10 μM concentration, seven days of infusion at 0.5 μL/hour, daily IP BrdU; four 12 week old adult male C57/B6 mice; vehicle 14.5
# Protocol: Compounds were administered at a concentration of 10 μM for each molecule. After seven days of infusion at a constant rate of 0.5 μL/hour, a total of 84 μL of volume will have left the pump (0.00084 μMoles) and entered the cerebrospinal fluid. The average volume of a brain from a 12 week old male, C57/B6 mouse in the study is 500 mm^3. […] Under these conditions, at the end of one week of infusion each compound would be present at 1.7 μMolar concentration. Since the actual amount of chemical compound in the brain is likely to be only a fraction of this predicted level, it is reasonable to estimate that compounds were administered at mid to low-nanomolar concentrations.
# During compound infusion, animals were intraperitoneally (IP) injected daily with the thymidine analog, bromodeoxyuridine (BrdU), as a means of scoring the birth and survival of proliferating neural precursor cells in the hippocampus. Because both social interaction and voluntary exercise are known to stimulate hippocampal neurogenesis, mice were housed individually without access to running wheels throughout the screening period. Following the week-long period of compound administration, animals were perfused and sacrificed. Dissected brain tissue was fixed, embedded, sectioned, stained with antibodies to BrdU, and evaluated by light microcopy as a means of quantifying neurogenesis and survival of newborn neural precursor cells localized to the subgranular layer of the dentate gyms on the brain hemisphere contralateral to the side of mini-pump cannulation. Every fifth section throughout the entire rostral-caudal extent of the hippocampus was analyzed, and the total number of BrdU+ cells was normalized against the measured volume of the dentate gyms.
# Intracranial infusions of either fibroblast growth factor 2 (FGF-2) or artificial cerebral spinal fluid (aCSF) vehicle via the same, week-long protocol were employed as positive and negative controls.
# Compounds were evaluated for pro-neurogenic efficacy/neuroprotection in a standard in vivo hippocampal neurogenesis assay at 10 μM concentration in four 12 week old adult male C57/B16 mice.
row,Compound,(×10^−06) BrdU+ cells/mm^3 dentate gyrus
1,"COc1cccc(NCC(O)CN2c3ccccc3CCc3ccccc32)c1 (stereo not drawn) [P7C3-S158, 1-(10,11-dihydro-5H-dibenzo[b,f]azepin-5-yl)-3-((3-methoxyphenyl)amino)propan-2-ol]",25 (×10^−06) BrdU+ cells/mm^3
2,"OCCn1c2ccc(Br)cc2c2cc(Br)ccc21 [P7C3-S171, 2-(3,6-dibromo-9H-carbazol-9-yl)ethanol]",26.2 (×10^−06) BrdU+ cells/mm^3
3,"CC(C)(C)NCC(O)CN1c2ccccc2CCc2ccccc21 (stereo not drawn) [P7C3-S145, 1-(tert-butylamino)-3-(10,11-dihydro-5H-dibenzo[b,f]azepin-5-yl)propan-2-ol]",25 (×10^−06) BrdU+ cells/mm^3
4,"Cc1ccc2c(c1)c1cc(Br)ccc1n2CC(=O)O [P7C3-S240, 2-(3-bromo-6-methyl-9H-carbazol-9-yl)acetic acid]",28.5 (×10^−06) BrdU+ cells/mm^3
5,"Cn1c2ccc(Br)cc2c2cc(Br)ccc21 [P7C3-S163, 3,6-dibromo-9-methyl-9H-carbazole]",24.2 (×10^−06) BrdU+ cells/mm^3
6,"CCC(C)N(C)C(=O)c1cc2ccccc2c(-c2ccccc2Cl)n1 (stereo not drawn) [P7C3-S200, PK 11195, reference compound]",22.1 (×10^−06) BrdU+ cells/mm^3
7,"CN(C)CC(F)CN1c2ccccc2CCc2ccccc21 (stereo not drawn) [P7C3-S148, 3-(10,11-dihydro-5H-dibenzo[b,f]azepin-5-yl)-2-fluoro-N,N-dimethylpropan-1-amine]",22.6 (×10^−06) BrdU+ cells/mm^3
8,"CNCC(O)CN1c2ccccc2CCc2ccccc21 (stereo not drawn) [P7C3-S143, 1-(10,11-dihydro-5H-dibenzo[b,f]azepin-5-yl)-3-(methylamino)propan-2-ol]",14.5 (×10^−06) BrdU+ cells/mm^3
9,"Cc1ccc2c(c1)c1cc(Br)ccc1n2C [P7C3-S280, 3-bromo-6,9-dimethyl-9H-carbazole]",25.1 (×10^−06) BrdU+ cells/mm^3
10,"CCOC(=O)c1ncc2[nH]c3ccccc3c2n1 [P7C3-S262, ethyl 5H-pyrimido[5,4-b]indole-2-carboxylate]",18 (×10^−06) BrdU+ cells/mm^3
11,"Cc1ccc2[nH]c3ccc(C)cc3c2c1 [P7C3-S237, 3,6-dimethyl-9H-carbazole]",23.5 (×10^−06) BrdU+ cells/mm^3
12,"OC(CN1c2ccccc2CCc2ccccc21)Cn1ccc2ccccc21 (stereo not drawn) [P7C3-S132, 1-(10,11-dihydro-5H-dibenzo[b,f]azepin-5-yl)-3-(1H-indol-1-yl)propan-2-ol]",22.8 (×10^−06) BrdU+ cells/mm^3
13,"OC(CNc1cccc2ccccc12)Cn1c(-c2ccccc2)cc2ccccc21 (stereo not drawn) [P7C3-S185, 1-(naphthalen-1-ylamino)-3-(2-phenyl-1H-indol-1-yl)propan-2-ol]",25.1 (×10^−06) BrdU+ cells/mm^3
14,"O=C(O)c1cc2c(cn1)[nH]c1ccc(Br)cc12 [P7C3-S206, 6-bromo-9H-pyrido[3,4-b]indole-3-carboxylic acid]",29.6 (×10^−06) BrdU+ cells/mm^3
15,"FGF-2: fibroblast growth factor 2, intracranial infusion employed as positive control",28.4 (×10^−06) BrdU+ cells/mm^3
16,"Cc1ccc2[nH]c3ccc(Br)cc3c2c1 [P7C3-S228, 3-bromo-6-methyl-9H-carbazole]",40.3 (×10^−06) BrdU+ cells/mm^3
17,"O=S(=O)(NCC(O)Cn1c2ccc(Br)cc2c2cc(Br)ccc21)C(F)(F)F (stereo not drawn) [P7C3-S264, N-(3-(3,6-dibromo-9H-carbazol-9-yl)-2-hydroxypropyl)-1,1,1-trifluoromethanesulfonamide]",20.6 (×10^−06) BrdU+ cells/mm^3
18,"O=C(NCC(O)Cn1c2ccc(Br)cc2c2cc(Br)ccc21)Nc1ccccc1 (stereo not drawn) [P7C3-S277, 1-(3-(3,6-dibromo-9H-carbazol-9-yl)-2-hydroxypropyl)-3-phenylurea]",20.3 (×10^−06) BrdU+ cells/mm^3
19,"Cc1c(C)c2c(c(C)c1O)CC[C@@](C)(CCC[C@H](C)CCC[C@H](C)CCCC(C)C)O2 [P7C3-S267, (+)-a-tocopherol, reference compound]",21.4 (×10^−06) BrdU+ cells/mm^3
20,"CS(=O)(=O)NC(=O)Cn1c2ccc(Br)cc2c2cc(Br)ccc21 [P7C3-S232, 2-(3,6-dibromo-9H-carbazol-9-yl)-N-(methylsulfonyl)acetamide]",16.8 (×10^−06) BrdU+ cells/mm^3

row,Compound,(×10^−06) BrdU+ cells/mm^3 dentate gyrus
1,"COc1ccc2[nH]c(C#N)c(N)c2c1 [P7C3-S276, 3-amino-5-methoxy-1H-indole-2-carbonitrile]",29.3 (×10^−06) BrdU+ cells/mm^3
2,"CCOC(=O)c1ncc2c(n1)c1ccccc1n2S(=O)(=O)c1ccc(C)cc1 [P7C3-S246, ethyl 5-tosyl-5H-pyrimido[5,4-b]indole-2-carboxylate]",29 (×10^−06) BrdU+ cells/mm^3
3,"O=C(O)c1ccc2[nH]c3ccc(Br)cc3c2c1 [P7C3-S225, 6-bromo-9H-carbazole-3-carboxylic acid]",30.4 (×10^−06) BrdU+ cells/mm^3
4,"CCCCCCN(CCCCCC)C(=O)Cc1c(-c2ccc(F)cc2)[nH]c2ccccc12 [P7C3-S201, N,N-Dihexyl-2-(4-fluorophenyl)indole-3-acetamide, reference compound]",24.8 (×10^−06) BrdU+ cells/mm^3
5,"NC(Cc1c[nH]c2ccc(Br)cc12)C(=O)O (racemic) [P7C3-S207, 5-bromo-DL-tryptophan, reference compound]",32.4 (×10^−06) BrdU+ cells/mm^3
6,"N#Cc1[nH]c2ccccc2c1N [P7C3-S268, 3-amino-1H-indole-2-carbonitrile]",32.1 (×10^−06) BrdU+ cells/mm^3
7,"CC(C)CCC[C@@H](C)[C@H]1CC[C@H]2[C@@H]3CCC4=CC(=NO)CC[C@]4(C)[C@H]3CC[C@]12C [P7C3-S266, Cholest-4-en-3-one, oxime, reference compound]",42.3 (×10^−06) BrdU+ cells/mm^3
8,"OC(CN1c2ccccc2CCc2ccccc21)CN1c2ccccc2CCc2ccccc21 [P7C3-S170, 1,3-bis(10,11-dihydro-5H-dibenzo[b,f]azepin-5-yl)propan-2-ol]",22.4 (×10^−06) BrdU+ cells/mm^3
9,"COc1ccc2[nH]cc(CCNC(C)=O)c2c1 [P7C3-S193, Melatonin, reference compound]",15.6 (×10^−06) BrdU+ cells/mm^3
10,"COc1ccc(S(=O)(=O)N(CC(F)Cn2c3ccc(Br)cc3c3cc(Br)ccc32)c2cccc(OC)c2)cc1 (stereo not drawn) [P7C3-S258, N-(3-(3,6-dibromo-9H-carbazol-9-yl)-2-fluoropropyl)-4-methoxy-N-(3-methoxyphenyl)benzenesulfonamide]",29.8 (×10^−06) BrdU+ cells/mm^3
11,COc1cccc(NCC(O)CN2c3ccc(Br)cc3CCc3cc(Br)ccc32)c1 (stereo not drawn) [P7C3-S76],28.3 (×10^−06) BrdU+ cells/mm^3
12,"CCCN(CCC)C(=O)Cc1c(-c2ccc(Cl)cc2)nc2ccc(Cl)cn12 [P7C3-S265, 6-Chloro-2-(4-chlorophenyl)-N,N-dipropyl-imidazo[1,2-a]pyridine-3-acetamide, reference compound]",29.3 (×10^−06) BrdU+ cells/mm^3
13,"O=C(O)Cn1c2ccc(Br)cc2c2cc(C(=O)O)ncc21 [P7C3-S227, 6-bromo-9-(carboxymethyl)-9H-pyrido[3,4-b]indole-3-carboxylic acid]",25.8 (×10^−06) BrdU+ cells/mm^3
14,"N#Cc1[nH]c2ccc(Br)cc2c1N [P7C3-S222, 3-amino-5-bromo-1H-indole-2-carbonitrile]",30.1 (×10^−06) BrdU+ cells/mm^3
15,"CN(C)C(CF)CN1c2ccccc2CCc2ccccc21 (stereo not drawn) [P7C3-S149, 1-(10,11-dihydro-5H-dibenzo[b,f]azepin-5-yl)-3-fluoro-N,N-dimethylpropan-2-amine]",23.2 (×10^−06) BrdU+ cells/mm^3
16,"O=C(Cn1c2ccc(Br)cc2c2cc(Br)ccc21)NS(=O)(=O)c1ccccc1 [P7C3-S230, 2-(3,6-dibromo-9H-carbazol-9-yl)-N-(phenylsulfonyl)acetamide]",30.5 (×10^−06) BrdU+ cells/mm^3
17,"COc1cccc(N(CC(O)Cn2c3ccc(Br)cc3c3cc(Br)ccc32)S(=O)(=O)c2ccccc2C(F)(F)F)c1 (stereo not drawn) [P7C3-S253, N-(3-(3,6-dibromo-9H-carbazol-9-yl)-2-hydroxypropyl)-N-(3-methoxyphenyl)-2-(trifluoromethyl)benzenesulfonamide]",28.5 (×10^−06) BrdU+ cells/mm^3
18,"COc1nc(N(C)C)nc2c3cc(Br)ccc3n(C)c12 [P7C3-S275, 8-bromo-4-methoxy-N,N,5-trimethyl-5H-pyrimido[5,4-b]indol-2-amine]",20.5 (×10^−06) BrdU+ cells/mm^3
19,"c1ccc2c(c1)CCc1ccccc1N2 [P7C3-S212, iminodibenzyl, reference compound]",20.5 (×10^−06) BrdU+ cells/mm^3
